According to patent publication US8580843B2, “Use of diindolylmethane (DIM) compounds and derivatives as neuroprotective agents” (Colorado State University Research Foundation, priority 2008, dated 2013):

Key:
Type in all cases: cell-based, mouse
Nos2 mRNA = test: Semi-quantitative real-time RT-PCR of Nos2 mRNA in primary astrocytes challenged with MPTP and TNF-α/IFN-γ
From the text: Primary Cell Isolation. Cortical astrocytes were isolated from day-1 old C57B1/6 or transgenic mouse pups according to procedures described previously (Aschner and Kimelberg, 1991), and purity confirmed through immunofluorescent staining using antibodies against GFAP and Iba1. Briefly, pups were euthanized by decapitation under isofluorane anesthesia and cortices (astrocytes) or striatum (neurons) rapidly dissected out, and meninges removed. Tissue was subject to digestion with Dispase (1.5 U/ml), and selection of astrocytes was performed by complete media change 24 hrs after plating to remove non-astroglial cell types by serum shock. This method routinely results in cultures that are approximately 99% pure astrocytes, with less than 1% contaminating microglial cells (Supplementary FIG. 1). Astrocyte cultures were maintained at 37° C. and 5% CO2 in minimum essential media supplemented with 10% heat-inactivated fetal bovine serum and a penicillin (0.001 mg/ml), streptomycin (0.002 mg/ml), and neomycin (0.001) antibiotic cocktail. Cell media was changed 24 hrs prior to all treatments. Primary neuronal cultures were seeded onto poly-L-lysine-coated 30 mm glass coverslips at 4×10^5 cells per well, and maintained in neurobasal media supplemented with 2 mM L-glutamine, a B27 supplement, and a penicillin (0.001 mg/ml), streptomycin (0.002 mg/ml), and neomycin (0.001) antibiotic cocktail. Neuronal culture media was changed 24 hours after isolation and every two days afterward, and culture purity confirmed through cell morphology and immunostaining against GAD65/67 (Supplementary FIG. 2). Neurons were used within two weeks of plating. All animal procedures were approved by the Colorado State University Institutional Animal Care and Use Committee, and were conducted in accordance with published NIH guidelines.
RT and Real-Time RT-PCR. […] RNA was isolated using the RNEasy Mini kit (Qiagen, Valencia, Calif.), and purity and concentration were determined using a Nanodrop ND 1000 spectrophotometer (NanoDrop Technologies, Wilmington, Del.). Following purification, 1 ug of RNA was used as template for reverse transcriptase (RT) reactions using the iScript RT kit (BioRad, Hercules Calif.). The resulting cDNA was immediately profiled for Nos2 gene expression (forward: 5′-TCACGCTTGGGTCTTGTT-3′ (SEQ ID NO:1); reverse: 5′-[…] -3′3′ (SEQ ID NO:2)) using β-Actin as a housekeeping gene (forward: 5′-[…]-3′3′ (SEQ ID NO:3); reverse: 5′-CGCTCGTTGCCAATACTG-3′3′ (SEQ ID NO:4)) according to the 2^−ΔΔCT method (Livak and Schmittgen, 2001).

[1] = test system: 3-nitrotyrosine protein nitration in astrocytes; test: Immunofluorescence of 3-nitrotyrosine adducts (protein nitration) in primary astrocytes treated with MPTP and cytokines
Procedure: Immunofluorescence. Primary astrocytes were grown to confluence on 20 mm serum-coated glass coverslips and treated with saline or MPTP (10 μM), TNF-α (10 pg/ml), and IFN-γ (1 ng/ml) with or without DIM-C-pPhtBu (10 μM), rosiglitazone (10 μM), the NOS2 inhibitor AMT (25 nM) or NOS 1 inhibitor 7-NI (10 μM), or a DMSO vehicle control 8 hours prior to analysis. Immunofluorescence to confirm culture purity was conducted on cells grown to confluence on the 20 mm glass coverslips. Blocking and antibody hybridization was conducted in 1% BSA (w/v) in PBS, and all washes were conducted in PBS. Images were acquired using a Zeiss 20× air PlanApochromat objective and 6-8 microscopic fields were examined per treatment group over no less than three independent experiments. Fluorescent secondary antibodies were used to detect GFAP (488 nmcx/519 nmcm) and Iba1 or nitrosylated protein (647 nmcx/668 nmcm), respectively, while mounting medium containing DAPI (360 nmcx/460 nmcm) was used to identify cell nuclei.
The effect of NOS2 induction by MPTP and inflammatory cytokines on global protein nitration following NO/peroxynitrite (ONOO—) formation in astrocytes was examined by immunofluorescence (FIG. 3). Immunofluorescence using antibodies against GFAP (FITC) and 3-nitrotyrosine adducts (Cy5) was employed to measure the extent of protein nitration within astrocytes treated with MPTP and cytokines, with or without inclusion of DIM-C-pPhtBu (10 μM), rosiglitazone (10 μM), the high-affinity NOS2 inhibitor AMT (25 nM), the NOSI inhibitor 7-NI (10 μM) or a DMSO vehicle control. […] Co-treatment of astroytes with DIM-C-pPhtBu prevented MPTP-induced increases in nitration, resulting in similar levels of 3-nitrotyrosine adducts as saline-treated control cells (FIG. 3C). Mean intracellular fluorescence for 3-nitrotyrosine was quantified and compared between each treatment group (FIG. 3D).

[2] = test system: primary striatal neurons co-cultured with activated astrocytes; test: Astrocyte-neuron co-culture: apoptosis of primary striatal neurons (caspase activity, Annexin V binding); settings: for Apoptosis in co-cultured striatal neurons (caspase activity and Annexin V-binding): astrocytes co-treated with 10 μM for 8 hours, six hours of co-culture, FIG. 6 C-D
Procedure: Astrocyte Neuron Co-Culture. Cells were isolated as described above and astrocytes grown to confluence on permeable cell culture inserts (BD Biosciences, San Jose, Calif.) prior to treatment. Astrocytes were then treated with MPTP (10 μM), TNF-α (10 pg/ml) and IFN-γ (1 ng/ml) in the presence or absence of DIM-C-pPhtBu (10 μM), Rosiglitazone (10 μM) AMT (25 nM), or DMSO vehicle control for 8 hours. Media was then removed, and the astrocytes washed three times with sterile PBS to prevent carryover of treatment medium to the neurons, and the inserts were placed directly in each well over cultured neurons. Astrocyte-containing inserts were removed following six hours of co-culture, and neuronal caspase activity and phosphatidylserine translocation were measured by widefield fluorescence microscopy using the general cell permeable fluorescent caspase substrate rhodamine 110, bis-(L-aspartic acid amide) and an Annexin V Alexa Fluor 680 conjugate, respectively. Images were acquired using a Zeiss 20× air PlanApochromat objective and at least 10 microscopic fields were examined per treatment group over three independent experiments.
The efficacy of DIM-C-pPhtBu in preventing astrocyte-dependent neuronal apoptosis was examined in FIG. 6. Astrocytes were grown to confluence in cell culture inserts that are permeable to small molecules but prevent direct cell-cell contact. Following treatment of astrocytes with MPTP and TNF-α/IFN-γ in the presence or absence of DIM-C-pPhtBu (10 μM), rosiglitazone (10 μM), the NOS2 inhibitor AMT (25 nM), or DMSO, astrocytes were washed with PBS and co-incubated directly above primary striatal neurons in neurobasal medium. Indices of neuronal apoptosis were then measured using live-cell fluorescence imaging of caspase activity (FIG. 6A) and Annexin V binding (FIG. 6B). […] The DMSO vehicle control had no suppressive effect.
Differing letters denote statistical significance (p<0.05).

[3] = astrocytes + MPTP, TNF-α, IFN-γ, FIG. 7(B), concentration not given
[4] = 10 μM, astrocytes + MPTP, TNF-α/IFN-γ, FIG. 2B

SMILES	Suppression of Nos2 mRNA (Nos2 mRNA; [3])	Suppression of Nos2 mRNA, dose response (Nos2 mRNA; concentrations ranging from 0.1 to 3 μM, astrocytes + MPTP, TNF-α, IFN-γ, FIG. 7(A))	Protein nitration in primary astrocytes induced by MPTP and TNF-α/IFN-γ ([1]; FIG. 7(D), concentration not given)	Annexin V binding in neurons increased by MPTP and cytokine treatment ([2]; 1 uM on astrocytes for 24 hrs, then 6 hrs with primary striatal neurons, FIG. 10(A))	Activation of astrocytes and subsequent neuronal apoptosis (quantitative Annexin V fluorescence) ([2]; 1 uM on astrocytes for 24 hrs, then 6 hrs with primary striatal neurons, FIG. 10(B))	Suppression of Nos2 mRNA (Nos2 mRNA; [4])	Lowest dose that suppressed Nos2 induction to levels statistically indistinguishable from saline-treated control astrocytes (Nos2 mRNA; primary astrocytes, MPTP + TNF-α/IFN-γ)	Suppression of MPTP and TNF-α/IFN-γ induced Nos2 mRNA expression, dose response (Nos2 mRNA; primary astrocytes, concentrations ranging from 1 to 100 μM, FIG. 2A)	MPTP-induced increase in 3-nitrotyrosine formation ([1]; 10 μM co-treatment, astrocytes, FIG. 3D)	Apoptosis in co-cultured striatal neurons (caspase activity and Annexin V-binding) [2]
COc1ccc(C(c2c[nH]c3ccccc23)c2c[nH]c3ccccc23)cc1 [DIM-C-pPhOCH3, 1,1-bis(3′-indolyl)-1-(p-methoxyphenyl)methane]	equivalent suppression of Nos2 mRNA	dose-responsive suppression	prevents protein nitration	inhibited	significantly reduced	–	–	–	–	–
CC(C)(C)c1ccc(C(c2c[nH]c3ccccc23)c2c[nH]c3ccccc23)cc1 [DIM-C-pPhtBu, 1,1-bis(3′-indolyl)-1-(p-t-butylphenyl)methane]	–	–	–	–	–	equivalent suppression of Nos2 to levels observed in saline-treated control astrocytes	10 µM	dose-dependently suppressed	prevented	prevented
CN(CCOc1ccc(CC2SC(=O)NC2=O)cc1)c1ccccn1 (stereo not shown) [rosiglitazone, 5-((4-(2-(methyl-2-pyridinylamino)ethoxy)phenyl)methyl)-2,4-thiazolidinedione, reference compound]	equivalent suppression of Nos2 mRNA	–	–	–	–	equivalent suppression of Nos2 to levels observed in saline-treated control astrocytes	–	–	–	prevented
